Assays:
primary DRG neurons = assay: TUNEL assay of DRG neuron apoptosis induced by H2O2; assay type: cell-based, Sprague-Dawley rat; details: CH02 + inhibitor 24 h, then H2O2 12 h, n = 5
Experimental: Figure 3 Effect of the CH02 peptide on axon growth and neuron survival. (A) Representative images of the CH02 peptide effect on axon growth in adult primary DRG neurons. DRG neurons were obtained from adult Sprague-Dawley rats. After 12-h of culture, neurons were stimulated with CH02 or bFGF for 48 h. Axonal outgrowth was assessed by immunocytochemistry using an antibody against β-tubulin, an axonal marker. Images were acquired from random neurons by fluorescence microscopy. Scale bars = 50 μm. (B) Quantification of the longest axon length of each neuron randomly selected in three independent experiments from (A), using Image-Pro Plus 6.0 software (n = 48 for each condition; *p < 0.05, ****p < 0.0001 by one-way ANOVA with Dunnett's test; ns, not significant; mean ± SD). […] The axon is shown in fluorescence (β3-tubulin) images. […] (D) Quantification of axon growth of DRG explants from (C) using the Neurite-J software (n=4 for each condition; *control vs. CH02; #control vs. bFGF; *p < 0.05, **p < 0.01, ***p < 0.001, #p < 0.05, ##p < 0.01 by two-way ANOVA with Dunnett's test; ns, not significant; mean ± SEM). […] LDH released from damaged cell membranes was detected by an LDH assay kit. The results are expressed as the mean ± SEM (**p < 0.01 by one-way ANOVA with Dunnett's test; ns, not significant, compared with the control group). […] Apoptotic neurons were detected by a TUNEL apoptosis assay kit. […]

[1] = tested on: AKT (phosphorylated) in DRG explants; assay: Western blot of phosphorylated AKT in DRG explants; assay type: cell-based, rat; details: CH02 20 μM + BGJ398 2 μM, 4 h, n = 3
Source text: (§1) Figure 6 Phosphoproteomic profiling of the intracellular signaling pathway used by CH02 for augmenting nerve regeneration. (A) GO biological process analysis of proteins corresponding to differentially expressed phosphorylated peptides. Ordinates indicate the enriched GO terms; abscissae represent the gene ratio; size of the dots indicates the number of proteins enriched in this biological process. (B) KEGG pathway analysis of proteins corresponding to differentially expressed phosphorylated peptides. Ordinates indicate the enriched pathway term; abscissae represent the gene ratio; size of the dots indicates number of proteins enriched in this pathway. […] (D-E) Quantification of p-ERK1/2 and p-AKT expression levels. n = 3 independent experiments. Relative protein expression level was quantified after normalization to the corresponding total proteins. […] (G-H) Quantification of p-ERK1/2 and p-AKT expression levels. n = 3 independent experiments. Relative protein expression level was quantified after normalization to the corresponding total proteins. […] The axon is shown in fluorescence (NF200) images. […] For quantification of axon length, neurons were immunostained using an antibody against β-tubulin. […] (N) Quantification of TUNEL-positive neurons (M) using ImageJ software (n = 5 for each condition; ***p < 0.001 by one-way ANOVA with Dunnett's test; mean ± SEM). […]

[2] = tested on: ERK1/2 (phosphorylated) in DRG explants; assay: Western blot of phosphorylated ERK1/2 in DRG explants; assay type: cell-based, rat; details: CH02 20 μM + BGJ398 2 μM, 4 h, n = 3
Source text: as §1

SMILES	effect of inhibitor on protective effect of CH02 against H2O2-induced apoptosis (primary DRG neurons)	effect of inhibitor on CH02-upregulated phosphorylated AKT [1]	effect of inhibitor on CH02-upregulated phosphorylated ERK [2]
N#CC(=C(/N)Sc1ccccc1N)/C(C#N)=C(/N)Sc1ccccc1N [U0126]	significantly reduced the protective effect of CH02 on neurons from apoptosis induced by H2O2		
CCN1CCN(c2ccc(Nc3cc(N(C)C(=O)Nc4c(Cl)c(OC)cc(OC)c4Cl)ncn3)cc2)CC1 [BGJ398]		counteracted CH02 effect on upregulating phosphorylated AKT and ERK levels	counteracted CH02 effect on upregulating phosphorylated AKT and ERK levels

From publication PMC8581430, “Peptide ligands targeting FGF receptors promote recovery from dorsal root crush injury via AKT/mTOR signaling” (Theranostics, 2021)
